# Measured values from patent US4472573A, “Nitrosourea derivative and process for preparing same” (Tanabe Seiyaku Co., Ltd., priority 1981, dated 1984).
# Legend:
# lymphoid leukemia L-1210 = details: U.S. Pat. No. 4,086,415; cited from earlier work
# Leukemia L-1210 = test: Effect on life span of mice implanted with Leukemia L-1210 (Method B); format: in vivo, BDF1 mice; details: once a day for 5 days; for 60-day survivors: survived for 60 days / used
# Protocol: (B) Effect on the Life Span of Mice Implanted with Leukemic Cells of L-1210
# 10^5 leukemic cells of L-1210 were inoculated intraperitoneally into a group of four male mice (BDF1 mice, body weight: 19-23 g). A test compound was dissolved in a physiological saline solution and administered intraperitoneally to the mice. The administration of the test compound was begun 24 hours after the inoculation of the leukemic cells and performed once a day for 5 days. The survival days of the treated mice were observed.
# ^(a) T = the mean survival days of the treated mice
# C = the mean survival days of the untreated mice (control group of mice)
# ^(c) 60day survivors = the number of mice survived for 60 days / the […]
# [1] = Preventive effect against the growth of Ehrlich ascites carcinoma (Method A); format: in vivo, ICR mice; details: mouse, in vivo, ip; maximum dose showing 100% inhibition without causing death; i.p., once a day for 5 days; read-out: MTD (Maximum Tolerated Dose)
# Protocol: (§1) (A) Preventive Effect Against the Growth of Ehrlich Ascites Tumor
# (§2) 10^6 tumor cells of Ehrlich ascites carcinoma were inoculated intraperitoneally into a group of five femal mice (ICR mice, body weight: 19-23 g). A test compound was dissolved in a physiological saline solution (In the case where CCNU was employed as the test compound, said compound was suspended in a physiological saline solution containing 0.1% NIKKOL HCO-60 (trademark; a surface active agent manufactured by Nikko Chemicals Co. Ltd.)) and administered intraperitoneally to the mice. The administration of the test compound was begun 24 hours after the inoculation of the tumor cells and performed once a day for 5 days. The volume of ascites in the treated mice were measured after 7 days of the experiment.
# (§3) ^(a) T = the average volume of ascites in the treated mice
# (§4) C = the average volume of ascites in the untreated mice (control group of
# (§5) 100% inhibition for the growth of Ehrlich ascites tumor in mice without
# (§6) 100% inhibition for the growth of said ascites tumor)
# (§7) ^(e) Therapeutic index = MTD / MED
# (§8) *the number of mice died / the number of mice used
# [2] = tested on: Ehrlich ascites carcinoma; test: as above; format: in vivo, ICR mice; details: for Inhibition ratio / Toxicity / the number of mice died / the number of mice used / minimal effective dose: once a day for 5 days; for Therapeutic index: MTD / MED; for minimal effective dose: Mus musculus, Ehrlich, ip, 120 h, minimum dose showing 100% inhibition, i.p., read-out: MED (Minimum Effective Dose)
# Protocol: as §1, §2, §3, §4, §5, §6, §7, §8
# leukemic cells = details: Japanese Patent Publication (unexamined) No. 141815/1976; cited from earlier work
SMILES,ILS (Leukemia L-1210; 12.5 mg/kg/day i.p.) [%],60-day survivors (Leukemia L-1210; 12.5 mg/kg/day i.p.),ILS (Leukemia L-1210; 25 mg/kg/day i.p.) [%],60-day survivors (Leukemia L-1210; 25 mg/kg/day i.p.),ILS (Leukemia L-1210; 50 mg/kg/day i.p.) [%],60-day survivors (Leukemia L-1210; 50 mg/kg/day i.p.),MTD [1] [mg/kg/day],Inhibition ratio ([2]; 0.39 mg/kg/day i.p.) [%],Inhibition ratio ([2]; 0.78 mg/kg/day i.p.) [%],Inhibition ratio ([2]; 3.12 mg/kg/day i.p.) [%],Inhibition ratio ([2]; 12.5 mg/kg/day i.p.) [%],Inhibition ratio ([2]; 50 mg/kg/day i.p.) [%],Toxicity ([2]; 100 mg/kg/day i.p.),the number of mice died / the number of mice used ([2]; 100 mg/kg/day i.p.),Therapeutic index [2],minimal effective dose [2] [mg/kg/day],further results
O=NN(CCCl)C(=O)N[C@@H]1O[C@H](CO)[C@@H](O)[C@H](O)[C@@H]1O [1-(2-chloroethyl)-1-nitroso-3-β-(D-mannopyranosyl)urea],,,,,,,,,,,,,,,,,life span of mice implanted with L-1210 (lymphoid leukemia L-1210): increase the life span of mice
"COCCN(C(=O)N(CCCl)N=O)[C@H]1[C@@H](OC)O[C@H](CO)[C@@H](O)[C@@H]1O [Compound 4, 1-(2-chloroethyl)-1-nitroso-3-(2-methoxyethyl)-3-(methyl α-D-glucopyranosid-2-yl)urea]",> 243.8,1/4,> 650.0,4/4,> 650.0,4/4,50,100,100,100,100,100,Toxic,3/5,128,0.39,ILS (Leukemia L-1210; 6.25 mg/kg/day i.p.): 93.8%; 60-day survivors (Leukemia L-1210; 6.25 mg/kg/day i.p.): 0/4; Inhibition ratio ([2]; 0.19 mg/kg/day i.p.): 69.6%
"CO[C@H]1O[C@H](CO)[C@@H](O)[C@H](O)[C@H]1N(CC(C)C)C(=O)N(CCCl)N=O [Compound 3, 1-(2-chloroethyl)-1-nitroso-3-isobutyl-3-(methyl α-D-glucopyranosid-2-yl)urea]",114.9,0/4,> 689.5,4/4,> 689.5,4/4,50,45.7,100,100,100,100,Toxic,4/5,64,0.78,
O=NN(CCCl)C(=O)N[C@@H]1O[C@H](CO)[C@@H](O[C@H]2O[C@H](CO)[C@@H](O)[C@H](O)[C@H]2O)[C@H](O)[C@H]1O [1-(2-chloroethyl)-1-nitroso-3-β-(D-maltosyl)urea],,,,,,,,,,,,,,,,,anti-tumor activity against leukemic cells (leukemic cells): show anti-tumor activity against leukemic cells
O=NN(CCCl)C(=O)N[C@@H]1O[C@H](CO)[C@@H](O[C@@H]2O[C@H](CO)[C@H](O)[C@H](O)[C@H]2O)[C@H](O)[C@H]1O [1-(2-chloroethyl)-1-nitroso-3-β-(D-lactosyl)urea],,,,,,,,,,,,,,,,,anti-tumor activity against leukemic cells (leukemic cells): show anti-tumor activity against leukemic cells
"CCCCN(C(=O)N(CCCl)N=O)[C@H]1[C@@H](OC)O[C@H](CO)[C@@H](O)[C@@H]1O [Compound 1, 1-(2-chloroethyl)-1-nitroso-3-n-butyl-3-(methyl α-D-glucopyranosid-2-yl)urea]",,,,,,,100,,34.1,,,,,,64,1.56,Inhibition ratio ([2]; 1.56 mg/kg/day i.p.): 100%; Inhibition ratio ([2]; 6.25 mg/kg/day i.p.): 100%; Inhibition ratio ([2]; 25 mg/kg/day i.p.): 100%; Inhibition ratio ([2]; 100 mg/kg/day i.p.): 100%; Toxicity ([2]; 200 mg/kg/day i.p.): Toxic
"O=NN(CCCl)C(=O)N[C@@H]1O[C@H](CO)[C@@H](O)[C@H](O)[C@H]1O [GANU, 1-(2-chloroethyl)-1-nitroso-3-(β-D-glucopyranosyl)urea, reference compound]",,,,,,,12.5,,,,100,,,,32,0.39,life span of mice implanted with L-1210 (lymphoid leukemia L-1210): increase the life span of mice; Toxicity ([2]; 25 mg/kg/day i.p.): Toxic; the number of mice died / the number of mice used ([2]; 25 mg/kg/day i.p.): 5/5
"O=NN(CCCl)C(=O)NC1CCCCC1 [CCNU, 1-(2-chloroethyl)-1-nitroso-3-cyclohexylurea, reference compound]",,,,,,,,,,,,,Toxic,5/5,4,12.5,
"CCCN(C(=O)N(CCCl)N=O)[C@H]1[C@@H](OC)O[C@H](CO)[C@@H](O)[C@@H]1O [Compound 2, 1-(2-chloroethyl)-1-nitroso-3-n-propyl-3-(methyl α-D-glucopyranosid-2-yl)urea]",> 366.3,2/4,> 650.0,4/4,> 650.0,4/4,50,15.2,100,100,100,100,Toxic,2/5,64,0.78,ILS (Leukemia L-1210; 6.25 mg/kg/day i.p.): 78.8%; 60-day survivors (Leukemia L-1210; 6.25 mg/kg/day i.p.): 0/4
"CO[C@H]1O[C@H](CO)[C@@H](O)[C@H](O)[C@H]1N(C)C(=O)N(CCCl)N=O [Compound 5, 1-(2-chloroethyl)-1-nitroso-3-methyl-3-(methyl α-D-glucopyranosid-2-yl)urea]",,,,,,,100,9.8,100,,,,,,128,0.78,Inhibition ratio ([2]; 1.56 mg/kg/day i.p.): 100%; Inhibition ratio ([2]; 6.25 mg/kg/day i.p.): 100%; Inhibition ratio ([2]; 25 mg/kg/day i.p.): 100%; Inhibition ratio ([2]; 100 mg/kg/day i.p.): 100%; Toxicity ([2]; 200 mg/kg/day i.p.): Toxic; the number of mice died / the number of mice used ([2]; 200 mg/kg/day i.p.): 5/5
